From ChEMBL document CHEMBL3886225, “Morpholinylquinazolines” (2015)
pIC50: −log10 of the molar value.

Molecular target: DNA-dependent protein kinase catalytic subunit (Homo sapiens, UniProt P78527)
Assay: Biochemical Assay: The kinase assay was carried out in streptavidin-coated […] microtitre FlashPlates®. To this end, 1.5 μg of the DNA-PK/protein complex and 100 ng of biotinylated substrate, such as, for example, PESQEAFADLWKK biotin-NH2 (biotin-DNA-PK peptide), in a total volume of 36.5 μl (34.25 mM HEPES/KOH, 7.85 mM Tris-HCl, 68.5 mM KCl, 5 μM ATP, 6.85 mM MgCl2, 0.5 mM EDTA, 0.14 mM EGTA, 0.69 mM DTT, pH 7.4), were incubated at room temperature for 90 min with 500 ng of DNA from calf thymus, 0.1 μCi of 33P-ATP and 1.8% of DMSO per well with or without the test compound. The reaction was stopped using 50 μl/well of 200 mM EDTA. After incubation for a further 30 min at room temperature, the liquid was removed. Each well was washed three times with 100 μl of 0.9% sodium chloride solution. A non-specific reaction (blank value) was determined using 10 μM of a proprietary kinase inhibitor.

DNA-dependent protein kinase catalytic subunit, sequence (P78527 whole entry): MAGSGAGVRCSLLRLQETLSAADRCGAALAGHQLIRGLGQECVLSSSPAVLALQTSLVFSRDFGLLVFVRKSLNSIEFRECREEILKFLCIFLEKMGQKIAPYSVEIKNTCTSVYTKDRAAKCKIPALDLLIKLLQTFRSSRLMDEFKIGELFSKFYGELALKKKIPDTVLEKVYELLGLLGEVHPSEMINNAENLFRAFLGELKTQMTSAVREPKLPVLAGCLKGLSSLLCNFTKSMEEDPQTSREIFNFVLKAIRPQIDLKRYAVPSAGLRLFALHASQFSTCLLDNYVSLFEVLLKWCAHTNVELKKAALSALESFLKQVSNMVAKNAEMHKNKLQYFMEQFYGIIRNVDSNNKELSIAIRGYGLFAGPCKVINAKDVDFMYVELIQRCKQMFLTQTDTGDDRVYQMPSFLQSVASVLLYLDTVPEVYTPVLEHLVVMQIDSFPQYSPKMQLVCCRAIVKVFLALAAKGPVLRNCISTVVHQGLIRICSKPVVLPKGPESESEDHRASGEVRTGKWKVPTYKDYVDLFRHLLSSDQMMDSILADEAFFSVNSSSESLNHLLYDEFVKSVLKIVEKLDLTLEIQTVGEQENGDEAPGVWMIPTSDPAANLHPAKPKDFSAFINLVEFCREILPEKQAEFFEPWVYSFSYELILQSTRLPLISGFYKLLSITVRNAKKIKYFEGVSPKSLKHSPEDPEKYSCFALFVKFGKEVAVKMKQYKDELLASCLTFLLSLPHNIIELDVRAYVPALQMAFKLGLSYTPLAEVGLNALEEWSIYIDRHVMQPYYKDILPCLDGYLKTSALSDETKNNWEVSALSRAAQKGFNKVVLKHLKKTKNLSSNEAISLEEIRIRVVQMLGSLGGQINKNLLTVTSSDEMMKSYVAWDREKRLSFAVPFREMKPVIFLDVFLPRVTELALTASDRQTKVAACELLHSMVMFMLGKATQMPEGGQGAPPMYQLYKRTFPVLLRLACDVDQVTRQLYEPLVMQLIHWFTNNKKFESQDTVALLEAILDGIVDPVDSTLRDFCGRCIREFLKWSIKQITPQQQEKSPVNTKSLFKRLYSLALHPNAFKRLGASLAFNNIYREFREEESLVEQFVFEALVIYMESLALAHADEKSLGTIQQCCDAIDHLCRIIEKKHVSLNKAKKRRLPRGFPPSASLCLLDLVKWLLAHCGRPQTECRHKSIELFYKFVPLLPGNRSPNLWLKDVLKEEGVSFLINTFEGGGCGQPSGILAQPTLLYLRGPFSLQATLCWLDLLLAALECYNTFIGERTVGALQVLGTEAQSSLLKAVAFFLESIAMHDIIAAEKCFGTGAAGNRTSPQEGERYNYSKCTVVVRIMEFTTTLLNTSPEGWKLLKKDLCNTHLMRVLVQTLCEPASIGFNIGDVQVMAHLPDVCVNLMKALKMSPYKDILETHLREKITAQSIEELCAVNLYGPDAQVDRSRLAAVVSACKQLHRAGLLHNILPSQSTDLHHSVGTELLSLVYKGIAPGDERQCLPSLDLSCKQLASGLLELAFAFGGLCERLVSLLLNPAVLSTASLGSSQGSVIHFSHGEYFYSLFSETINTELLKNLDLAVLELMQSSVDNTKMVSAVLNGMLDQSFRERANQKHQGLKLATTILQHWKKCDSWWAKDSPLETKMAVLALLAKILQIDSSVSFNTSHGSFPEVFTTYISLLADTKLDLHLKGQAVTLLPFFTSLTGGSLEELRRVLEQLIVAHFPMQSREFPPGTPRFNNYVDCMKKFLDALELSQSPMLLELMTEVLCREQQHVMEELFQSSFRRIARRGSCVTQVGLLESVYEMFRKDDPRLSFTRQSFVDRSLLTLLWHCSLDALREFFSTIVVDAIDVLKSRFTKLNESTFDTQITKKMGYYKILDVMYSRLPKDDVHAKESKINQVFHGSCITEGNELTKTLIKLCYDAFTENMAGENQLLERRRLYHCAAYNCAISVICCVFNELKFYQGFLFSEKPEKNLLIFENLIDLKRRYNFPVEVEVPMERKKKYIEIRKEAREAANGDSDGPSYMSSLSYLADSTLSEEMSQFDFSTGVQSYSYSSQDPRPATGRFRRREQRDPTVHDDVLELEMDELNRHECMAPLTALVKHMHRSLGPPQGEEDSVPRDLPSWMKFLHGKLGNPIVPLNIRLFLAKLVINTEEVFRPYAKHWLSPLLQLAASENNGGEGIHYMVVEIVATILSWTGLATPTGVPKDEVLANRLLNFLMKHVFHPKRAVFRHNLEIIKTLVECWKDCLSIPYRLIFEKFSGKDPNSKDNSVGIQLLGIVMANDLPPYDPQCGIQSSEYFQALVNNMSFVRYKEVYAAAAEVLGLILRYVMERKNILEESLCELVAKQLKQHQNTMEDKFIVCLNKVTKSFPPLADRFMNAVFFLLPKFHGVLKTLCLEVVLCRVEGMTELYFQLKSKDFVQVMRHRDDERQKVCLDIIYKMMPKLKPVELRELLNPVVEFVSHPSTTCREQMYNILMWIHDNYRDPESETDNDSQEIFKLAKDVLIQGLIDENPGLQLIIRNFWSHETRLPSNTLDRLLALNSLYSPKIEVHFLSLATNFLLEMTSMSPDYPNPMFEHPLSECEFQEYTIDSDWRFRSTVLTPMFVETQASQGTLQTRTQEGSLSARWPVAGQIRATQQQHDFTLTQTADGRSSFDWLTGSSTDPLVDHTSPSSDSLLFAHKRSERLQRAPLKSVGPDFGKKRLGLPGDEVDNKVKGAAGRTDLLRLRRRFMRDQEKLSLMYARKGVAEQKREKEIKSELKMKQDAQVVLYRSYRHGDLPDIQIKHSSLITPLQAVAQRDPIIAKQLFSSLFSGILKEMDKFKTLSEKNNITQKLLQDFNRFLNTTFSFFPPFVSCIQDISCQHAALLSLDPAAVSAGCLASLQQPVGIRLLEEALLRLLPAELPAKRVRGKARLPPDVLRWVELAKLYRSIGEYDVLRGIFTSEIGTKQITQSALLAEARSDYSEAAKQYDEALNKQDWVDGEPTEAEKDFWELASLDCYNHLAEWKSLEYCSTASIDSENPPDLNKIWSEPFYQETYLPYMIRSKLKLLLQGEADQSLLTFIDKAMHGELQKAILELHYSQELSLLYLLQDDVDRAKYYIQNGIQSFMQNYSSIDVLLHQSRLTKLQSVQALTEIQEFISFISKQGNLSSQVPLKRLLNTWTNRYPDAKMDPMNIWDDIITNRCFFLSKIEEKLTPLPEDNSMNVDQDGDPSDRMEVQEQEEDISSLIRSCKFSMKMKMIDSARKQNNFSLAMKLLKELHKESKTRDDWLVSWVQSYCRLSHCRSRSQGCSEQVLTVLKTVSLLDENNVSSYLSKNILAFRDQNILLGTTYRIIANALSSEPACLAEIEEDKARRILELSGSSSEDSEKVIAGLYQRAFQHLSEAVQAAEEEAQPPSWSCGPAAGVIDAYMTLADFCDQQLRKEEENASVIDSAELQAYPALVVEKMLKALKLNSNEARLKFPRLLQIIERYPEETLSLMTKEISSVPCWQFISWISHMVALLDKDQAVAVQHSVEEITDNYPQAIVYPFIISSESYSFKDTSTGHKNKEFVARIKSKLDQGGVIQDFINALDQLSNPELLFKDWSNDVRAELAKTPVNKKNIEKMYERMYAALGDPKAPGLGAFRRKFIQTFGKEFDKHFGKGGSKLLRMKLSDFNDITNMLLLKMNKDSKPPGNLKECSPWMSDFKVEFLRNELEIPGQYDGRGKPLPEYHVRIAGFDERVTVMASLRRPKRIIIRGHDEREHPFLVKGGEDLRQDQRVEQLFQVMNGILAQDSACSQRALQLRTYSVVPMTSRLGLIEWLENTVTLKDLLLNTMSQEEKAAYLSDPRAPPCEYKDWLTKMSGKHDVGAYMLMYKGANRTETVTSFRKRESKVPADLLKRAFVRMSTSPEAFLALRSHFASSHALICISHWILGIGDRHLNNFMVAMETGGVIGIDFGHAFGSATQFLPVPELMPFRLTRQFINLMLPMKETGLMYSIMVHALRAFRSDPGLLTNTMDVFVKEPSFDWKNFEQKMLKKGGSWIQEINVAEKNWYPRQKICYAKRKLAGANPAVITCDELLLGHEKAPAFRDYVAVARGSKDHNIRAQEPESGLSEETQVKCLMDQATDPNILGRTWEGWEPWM

For `O=S(=O)(NC1CCCN(c2nc(Cl)nc3cc(N4CCOCC4)ccc23)C1)c1cccs1` (stereo unspecified), the pIC50 was greater than 7.00.
